The source of these data is PubChem BioAssay AID2791 (The Scripps Research Institute Molecular Screening Center, 2010).

A word on the IC50: it is the concentration at which inhibition is half-maximal.

Each structure is given as a SMILES string. Activity calls are given as the source filed them.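 Rule for the calls: active = blockers of MCL1 binding to BIM peptide with IC50 at or below 10 micromolar; inactive = IC50 above 10 micromolar.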

The target in the test is Induced myeloid leukemia cell differentiation protein Mcl-1 (Homo sapiens) (UniProt Q07820). In words: MCL1 binding to BIM-BH3 peptide, inhibitors, dose response, biochemical, fluorescence polarization, GST-MCL1, FITC-BIM-BH3, powder samples (AID 2791).
Induced myeloid leukemia cell differentiation protein Mcl-1 (Homo sapiens), sequence (Q07820 whole entry, looked up): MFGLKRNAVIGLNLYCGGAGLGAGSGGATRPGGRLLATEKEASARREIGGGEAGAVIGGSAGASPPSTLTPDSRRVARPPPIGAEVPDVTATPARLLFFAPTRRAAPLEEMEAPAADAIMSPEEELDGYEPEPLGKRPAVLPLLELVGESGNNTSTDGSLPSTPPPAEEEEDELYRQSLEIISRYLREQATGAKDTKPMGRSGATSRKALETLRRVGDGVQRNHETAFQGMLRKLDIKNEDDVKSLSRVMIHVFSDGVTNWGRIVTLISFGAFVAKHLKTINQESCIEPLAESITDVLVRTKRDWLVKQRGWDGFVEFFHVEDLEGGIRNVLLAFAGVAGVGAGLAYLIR
In the case of `C=CCn1c(SCC(=O)c2ccc(O)c(O)c2)nnc1-c1cccnc1`, the IC50 is 4.09 µM. In the case of `O=C(NN=Cc1cccc(F)c1)c1cc(-c2ccco2)nc2ccccc12`, the IC50 is 6.88 µM. Then `COc1ccc(Cc2nnc(NC(=O)Cc3cccs3)s2)cc1OC`, with 7.34 µM; and `CCc1sc(C(C2C(=O)CC(C)(C)CC2=O)C2C(=O)CC(C)(C)CC2=O)cc1[N+](=O)[O-]`, with “inactive”. Next, `C=CCN=c1scc(-c2ccco2)n1/N=C/c1ccc(O)c(O)c1O`: 0.844 µM. Next, `O=C(NN=Cc1ccc(-c2ccc(S(=O)(=O)Nc3ncccn3)cc2)o1)c1cc2ccccc2cc1O`: > 109 µM (inactive); `COc1ccc(NC(=O)CN(C)C(=O)c2cc3c(s2)CCC3)cc1`: “inactive”; `COC(=O)c1ccccc1NCc1cc(=O)oc2cc(O)c(O)cc12`: 5.01 µM. `CCOc1ccc(NC(=O)c2cccc(-n3cccc3)c2)cc1S(=O)(=O)N1CCOCC1`: the IC50 was > 109 µM (inactive). Then `COc1ccc(-n2cccc2/C=C2\C(=N)N3N=C(c4ccco4)SC3=NC2=O)cc1`, with 1.45 µM; and `Nc1ccc(C(=O)NN=Cc2cc(N=Nc3cccc4ccccc34)ccc2O)cc1`, with 5.84 µM. On to `O=C1COc2ccc(C(=O)COC(=O)/C=C/c3ccc(Br)o3)cc2N1`, for which the IC50 is > 109 µM (inactive). Next, `Cc1cccc(NC(=O)CNC(=O)c2cccc(-n3cccc3)c2)c1C`: “inactive”.
